We go through three molecules from patent publication US7531567B2, “Use of a medicament containing an effector of the glutathione metabolism together with α-lipoic acid in kidney replacement therapy” (Serumwerk Bernburg AG, priority 2001, dated 2009).

Where a name gives a salt, the structure may show the parent alone.

Holding throughout (assay type): cell-based, human
Assay [1] concerns peritoneal macrophages. As to the kind of experiment: cytokine synthesis of peritoneal macrophages (enzyme immunoassay). Particulars: treatment period of 6 days (n=10); α-lipoic acid 50 μM, ambroxole 10 μM, enalapril 5 μM, captopril 10 μM. The method, then:
In parallel to this, in this experimental batch the cell culture supernatants were recovered and the cytokines interleukin-6 (IL-6) and interleukin-1 receptor antagonist (IL-1ra) contained therein, synthesized and secreted by the peritoneal macrophages, were determined.

Assay [2] concerns peritoneal macrophages. The assay is described as follows: phagocytic ability of peritoneal macrophages (fluorochrome-labelled bacteria). Conditions: treatment period of 6 days; for Phagocytosis rate: α-lipoic acid 50 μM, ambroxole 10 μM, enalapril 5 μM, captopril 10 μM. The protocol: Peritoneal macrophages were isolated analogously to the procedure described under example 3 and cultured ex vivo. The determination of the phagocytic power was carried out by means of a cytofluorometric test at the individual cell level. In this test, the macrophages were cocultured with opsonized and fluorochrome-labelled bacteria. The amount of bacteria taken up in a defined time period was recorded quantitatively by means of the fluorescence intensity in the macrophages and was regarded as a measure of their phagocytic capacity. The influence of the combinations used according to the invention on the phagocytic ability of the peritoneal macrophages after a treatment period of 6 days is presented in Table 3.

Assay [3] has as its system peritoneal macrophages. As to the kind of experiment: stability of membrane-bound thiol restitution in peritoneal macrophages in the dialysis model. Conditions: dialysis model over 14 days; FIG. 7. The protocol:
The peritoneal macrophages described under example 3, which were thiol-restituted by means of the combinations used according to the invention, were removed from this test system after 6 days and cultured in a dialysis model over a period of 14 days. For this, the peritoneal macrophages were adapted to mobile collagen IV-coated matrices and brought into contact with conventional dialysis solution 3 times daily for 60 minutes each. This model served here for the induction of a combined […]/osmotic stress. In FIG. 6, the action of the combination of α-lipoic acid and ambroxole (FIG. 6a), and α-lipoic acid and enalapril (FIG. 6b) on the intracellular thiol expression of the peritoneal macrophages in the time kinetics is presented. The membrane expression of thiols was determined by means of the mean fluorescence intensity (mfi) of the sample (3000 cells/measurement) after coupling to a chloro-methylfluorochrome derivative.

Assay [4] concerns peritoneal macrophages. The assay is described as follows: degree of differentiation and activation of peritoneal macrophages (CD15, CD11c, CD69, CD71). Particulars: incubation for 6 days, control = 1.0, α-lipoic acid 50 μM, ambroxole 10 μM, enalapril 5 μM, captopril 10 μM; for CD15/69: CD69 on CD15-positive cells; for CD11c/71: CD71 on CD11c-positive cells. The method, then:
Peritoneal macrophages were isolated from patients under kidney replacement therapy according to the processes described under example 3 and cultured in the presence of the combinations of α-lipoic acid and effectors of the glutathione metabolism named according to the invention. After incubation for 6 days, the degree of differentiation of the peritoneal macrophages was determined cytofluorometrically by means of the expression of the cell surface antigens CD15 and CD11c, and the degree of cellular activation by means of the coexpression of the activation antigens CD69 on CD15-positive cells and CD71 on CD11c-positive cells.

In another assay the test system is T lymphocytes. The assay is described as follows: activation markers CD69, CD25, CD71 of phytohemagglutinin-stimulated T lymphocytes. Conditions: thiol-deficient cells, culture period of 72 hours, FIG. 3. The method, then: In the culture batch described under example 1, human T lymphocytes were stimulated with […] of phyto-hemagglutinin. […] The influence of the combinations used according to the invention on the activation markers CD69 (early activation antigen), CD25 (intermediate activation antigen) and CD71 (late activation antigen) of T lymphocytes was investigated. In FIG. 3, the action of the combination of α-lipoic acid and ambroxole (FIG. 3a), and α-lipoic acid and enalapril (FIG. 3b) on the activation index of T lymphocytes is shown. Compared with normal T lymphocytes (activation index=1.0), in thiol-deficient cells a clear lowering of the activatability, confirming the cellular functional disorder, is to be noted. […] It can thus be concluded that the normalization of the cellular thiol status mediated by the combined use of α-lipoic acid and the respective effectors of the glutathione metabolism is accompanied by a restitution of the cellular functionality.

The next assay relates to peripheral immune cells. As to the kind of experiment: membrane-bound thiol expression of peripheral immune cells (CMTMR flow cytofluorimetry). Conditions: α-lipoic acid 50 μM, captopril 10 μM, combination at the same concentrations. The method, then:
Peripheral immune cells of healthy donors (n=9) were isolated from the peripheral blood by means of density gradient centrifugation. Lymphocytes having a donor-dependent relative proportion of about 90% in this case normally represent the main fraction of the resulting total population of mononuclear cells. 10% of the mononuclear cells are represented by monocytes. The mononuclear cells obtained were taken up in special cell culture media and incubated in a gas incubator at 37° C., a relative humidity of 98% and 5% relative air-CO2 content. The metabolism of the primarily resting immune cells was activated by means of mitogenic stimulation (0.5 μg/ml of phytohemagglutinin). In order to test the influence of the combinations used according to the invention on the thiol status of thiol-deficient immune cells, these were artificially thiol-depleted. This was carried out by culturing in thiol-deficient media (RPMI 1603) according to tested procedures. Comparison cultures using whole media (RPMI 1640) served for the definition of the best possible normal value under culture conditions. The expression of membrane-bound thiol groups was likewise determined by flow cytofluorimetry. In this connection, chloromethyltetramethylrhodamine (CMTMR) was employed as a thiol conjugate under the conditions of a blocked membrane potential and of an inhibited diffusion capacity of the cells. The fluorescence intensity of the bound fluorochrome molecules on the cell membrane is in this case in turn proportional to the amount of the thiol groups on the cell surface.

For assay [5], the system named is lymphocytes (peripheral immune cells). The assay is described as follows: intracellular thiol expression of peripheral immune cells (CMFDA flow cytofluorimetry). Particulars: α-lipoic acid 50 μM, captopril 10 μM, combination at the same concentrations. The protocol: Peripheral immune cells of healthy donors (n=9) were isolated from the peripheral blood by means of density gradient centrifugation. Lymphocytes having a donor-dependent relative proportion of about 90% in this case normally represent the main fraction of the resulting total population of mononuclear cells. 10% of the mononuclear cells are represented by monocytes. The mononuclear cells obtained were taken up in special cell culture media and incubated in a gas incubator at 37° C., a relative humidity of 98% and 5% relative air-CO2 content. The metabolism of the primarily resting immune cells was activated by means of mitogenic stimulation (0.5 μg/ml of phytohemagglutinin). In order to test the influence of the combinations used according to the invention on the thiol status of thiol-deficient immune cells, these were artificially thiol-depleted. This was carried out by culturing in thiol-deficient media (RPMI 1603) according to tested procedures. Comparison cultures using whole media (RPMI 1640) served for the definition of the best possible normal value under culture conditions. […] Primarily nonfluorogenic CMFDA is in this case passively taken up by the cell. Binding to cytoplasmic thiol groups takes place via the chloromethyl radical. After removal of the acetate radicals by nonspecific cellular esterases, this, now cell membrane-impermeable complex becomes fluorogenic at an excitation wavelength λex=490 nm with an emission wavelength λem=520 nm. The mean fluorescence intensity of the sample (10,000 cells) is directly proportional to the concentration of the intracellular thiol groups. In FIG. 1, the action of the combination of α-lipoic acid and ambroxole (FIG. 1a) and α-lipoic acid and enalapril (FIG. 1b) on the intracellular thiol expression of lymphocytes is shown. […] The data are shown as the ratio of the cellular fluorescence intensity for calibration particles (beads) in each case analyzed in parallel. The active compound concentration of the respective combination is identical to the concentrations of the individual components.

For assay [6], the system named is peritoneal macrophages. As to the kind of experiment: cellular thiol expression of peritoneal macrophages in kidney replacement therapy. Particulars: time kinetics over 14 days (n=12); FIG. 4. The protocol:
Peritoneal macrophages were isolated from the effluate of the peritoneal dialysis of high-grade renally insufficient patients, taken up in cell culture medium and incubated in a gas incubator at 37° C., a relative humidity of 98% and 7.5% relative air-CO2 content. In order to test the influence of the combinations used according to the invention on the thiol status of the peritoneal macrophages, in each case a fraction was treated with α-lipoic acid, the effector of the glutathione metabolism ambroxole or the ACE inhibitor enalapril or with the combination of α-lipoic acid/ambroxole or α-lipoic acid/enalapril, while in each case a further fraction was used as an untreated control. The determination of the cellular thiol status was carried out by means of the measuring method described under 1. The membrane expression of thiols was determined by means of the mean fluorescence intensity (mfi) of the sample (3000 cells/measurement) after coupling to a chloromethylfluorochrome derivative. In FIG. 4, the effect of the combination of α-lipoic acid and ambroxole (FIG. 4a), and α-lipoic acid and enalapril (FIG. 4b) in the time kinetics over 14 days is shown (n=12).

Take `CCOC(=O)[C@H](CCc1ccccc1)NC(C)C(=O)N1CCCC1C(=O)O` (stereo in doubt) [Enalapril, 1-{N—[(S)-1-ethoxycarbonyl-3-phenylpropyl]-L-alanyl}-L-proline]: in the assay on peritoneal macrophages [1], the IL-1ra was 121.1 ± 16.9 ng/10^6 cells and the IL-6 was 41.7 ± 7.3 ng/10^6 cells. Further, in the assay with peritoneal macrophages [2], the “increase in the phagocytosis rate in relation to the untreated control, factor” value is recorded as 1.53 and the Phagocytosis rate is reported as 567 ± 59 mfi/10,000 cells. Moreover, the “membrane-bound thiol expression in the dialysis model (in words)” value in the assay with peritoneal macrophages [3] was “marginal effects”. Further, in the assay on peritoneal macrophages [4], the CD15/69 is 1.19 ± 0.12, the CD11c/71 worked out at 1.10 ± 0.14, the CD11c turned out to be 1.23 ± 0.22 and the CD15 is 1.21 ± 0.22. Besides, in the assay on T lymphocytes, the “effect on the activation index of T lymphocytes (in words)” value is given as “only equivalent in the case of the effectuation of the CD25 antigen of the α-lipoic acid”.
In the assay on peritoneal macrophages [1], `C[C@H](CS)C(=O)N1CCC[C@H]1C(=O)O` [Captopril, 1-[(2S)-3-mercapto-2-methylpropionyl]-L-proline] had an IL-1ra of 129.4 ± 25.1 ng/10^6 cells. In the assay on peritoneal macrophages [1], the IL-6 is 42.9 ± 7.7 ng/10^6 cells. The Phagocytosis rate in the assay with peritoneal macrophages [2] is on record as 653 ± 43 mfi/10,000 cells. For the same molecule, the Membrane-bound thiol expression in the assay on peripheral immune cells (culture period 0 d) is 2.37 ± 0.45 mfiBeads/Ratio; in the assay with peripheral immune cells (culture period 1 d), 2.63 ± 0.39 mfiBeads/Ratio; in the assay on peripheral immune cells (culture period 2 d), 2.54 ± 0.41 mfiBeads/Ratio; with peripheral immune cells (culture period 3 d), 2.52 ± 0.38 mfiBeads/Ratio; in the assay with peripheral immune cells (culture period 4 d), 2.50 ± 0.41 mfiBeads/Ratio; in the assay with peripheral immune cells (culture period 6 d) it was 2.46 ± 0.50 mfiBeads/Ratio. Moreover, the Membrane-bound thiol expression in the assay on peripheral immune cells (culture period 8 d) was determined as 2.01 ± 0.39 mfiBeads/Ratio; in the assay with peripheral immune cells (culture period 10 d), 1.68 ± 0.29 mfiBeads/Ratio; with peripheral immune cells (culture period 12 d) it was 1.02 ± 0.51 mfiBeads/Ratio; with peripheral immune cells (culture period 14 d) it was 0.99 ± 0.46 mfiBeads/Ratio. The intracellular thiol expression in assay [5] (culture period 0 d) was found to be 2.88 ± 0.20 mfiBeads/Ratio; in assay [5] (culture period 1 d), 2.80 ± 0.21 mfiBeads/Ratio; in assay [5] (culture period 2 d) it was 2.76 ± 0.22 mfiBeads/Ratio; in assay [5] (culture period 3 d), 2.49 ± 0.26 mfiBeads/Ratio; in assay [5] (culture period 4 d) it was 2.21 ± 0.36 mfiBeads/Ratio; in assay [5] (culture period 6 d), 1.83 ± 0.33 mfiBeads/Ratio. The intracellular thiol expression was 1.02 ± 0.39 mfiBeads/Ratio in assay [5] (culture period 8 d), 0.91 ± 0.46 mfiBeads/Ratio in assay [5] (culture period 10 d), 0.76 ± 0.49 mfiBeads/Ratio in assay [5] (culture period 12 d) and 0.75 ± 0.56 mfiBeads/Ratio in assay [5] (culture period 14 d). For the same molecule, in the assay with peritoneal macrophages [4], the CD15/69 was determined as 1.69 ± 0.21. Further, the CD11c/71 in the assay with peritoneal macrophages [4] came out at 1.52 ± 0.16. Further, the CD11c with peritoneal macrophages [4] is 1.26 ± 0.24. For the same molecule, the CD15 in the assay with peritoneal macrophages [4] is listed as 1.19 ± 0.14.
With `Nc1c(Br)cc(Br)cc1CNC1CCC(O)CC1` (stereo not drawn) [Ambroxole, hydrochloride], in the assay with peritoneal macrophages [1], the IL-1ra was found to be 118.6 ± 21.3 ng/10^6 cells and the IL-6 is on record as 51.8 ± 8.1 ng/10^6 cells. In the assay with peritoneal macrophages [2], the “increase in the phagocytosis rate in relation to the untreated control, factor” value is on record as 1.35 and the Phagocytosis rate is reported as 501 ± 52 mfi/10,000 cells. The “membrane-bound thiol expression in the dialysis model (in words)” value with peritoneal macrophages [3] is on record as “marginal effects”. In the assay on peritoneal macrophages [4], the CD15/69 is on record as 0.98 ± 0.11, the CD11c/71 came out at 0.96 ± 0.1, the CD11c amounted to 1.01 ± 0.09 and the CD15 was 0.98 ± 0.13. For the same molecule, the “effect on the cellular thiol expression of peritoneal macrophages (in words)” value in the assay on peritoneal macrophages [6] is given as “no effect”. Besides, the “effect on the activation index of T lymphocytes (in words)” value with T lymphocytes is listed as “no influence on one of the three activation markers”.
